Reference: ChEMBL document CHEMBL3739410, “The natural product brartemicin is a high affinity ligand for the carbohydrate-recognition domain of the macrophage receptor mincle” (Medchemcomm, 2015)

Organism: Bos taurus
Assay: Displacement of radioiodinated Man31-bovine serum albumin from biotin-tagged bovine mincle CRD after 2 hr by scintillation counting analysis relative to alpha,alpha-trehalose

With `Cc1cc(O)cc(O)c1C(=O)OC[C@H]1O[C@H](O[C@H]2O[C@H](COC(=O)c3c(C)cc(O)cc3O)[C@@H](O)[C@H](O)[C@H]2O)[C@H](O)[C@@H](O)[C@@H]1O` the Ratio Ki was 290.
